# Test results as given in US20230265151A1, “GIP/GLP1 CO-AGONIST COMPOUNDS” (priority 2020, published 2023).
# Key:
# Assay type in all cases: cell-based
# [1] = target: hGLP-1R (Homo sapiens, UniProt P43220); assay: Functional cAMP formation (HTRF) in HEK-293 clonal cells expressing hGLP-1R, 0.1% bovine casein, without or with 1.0% human serum albumin; set-up: expressed in transfected cells; conditions: for Emax: HEK293, read-out: hGLP-1R Emax, % ± SEM, percent of maximal response to GLP-1(7-36)NH2, 37° C., 0.1% bovine casein, arithmetic mean; for EC50: hGLP-1R EC50, nM (SEM, n), cAMP, incubated at 37° C., 0.1% bovine casein (no human serum albumin), geometric mean
# In short: (§1)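 Cells were stimulated with peptide for 30 min at 37° C, then intracellular cAMP was measured by competitive HTRF (665/620 nm ratio) and converted to nM using a cAMP standard curve. Relative EC50 and Emax came from four-parameter logistic fits of percent maximal response against peptide concentration.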
# [2] = target: T1, hGIPR (Homo sapiens, UniProt P48546); assay: Functional cAMP formation (HTRF) in HEK-293 clonal cells expressing hGIPR, 0.1% bovine casein, without or with 1.0% human serum albumin; conditions: for EC50: hGIPR EC50, nM (SEM, n), cAMP, incubated at 37° C., 0.1% bovine casein (no human serum albumin), geometric mean; for Emax: HEK293, read-out: hGIPR Emax, % ± SEM, percent of maximal response to GIP(1-42)NH2, 37° C., 0.1% bovine casein, arithmetic mean
# T1 construct: expressed in transfected cells
# T1 sequence (P48546 22-466): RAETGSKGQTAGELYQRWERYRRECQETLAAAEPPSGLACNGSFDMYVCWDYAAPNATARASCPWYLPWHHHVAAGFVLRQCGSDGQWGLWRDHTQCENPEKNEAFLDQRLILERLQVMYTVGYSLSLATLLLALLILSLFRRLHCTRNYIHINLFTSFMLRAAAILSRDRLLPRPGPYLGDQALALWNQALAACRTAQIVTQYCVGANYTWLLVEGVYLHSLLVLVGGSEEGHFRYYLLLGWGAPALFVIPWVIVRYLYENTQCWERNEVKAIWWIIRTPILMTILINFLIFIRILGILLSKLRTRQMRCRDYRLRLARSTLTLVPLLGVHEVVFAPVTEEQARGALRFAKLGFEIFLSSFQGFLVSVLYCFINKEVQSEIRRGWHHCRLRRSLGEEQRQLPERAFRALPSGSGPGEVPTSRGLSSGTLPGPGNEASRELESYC
# In short: as §1
# [3] = target: T2, hGCGR (Homo sapiens, UniProt P47871); assay: Functional cAMP formation (HTRF) in HEK-293 clonal cells expressing hGCGR, 0.1% bovine casein, without or with 1.0% human serum albumin; conditions: hGCGR EC50, nM (SEM, n), cAMP, incubated at 37° C., 0.1% bovine casein (no human serum albumin); geometric mean
# T2 construct: expressed in transfected cells
# In short: as §1
# hGLP-1R, sequence (P43220 24-463): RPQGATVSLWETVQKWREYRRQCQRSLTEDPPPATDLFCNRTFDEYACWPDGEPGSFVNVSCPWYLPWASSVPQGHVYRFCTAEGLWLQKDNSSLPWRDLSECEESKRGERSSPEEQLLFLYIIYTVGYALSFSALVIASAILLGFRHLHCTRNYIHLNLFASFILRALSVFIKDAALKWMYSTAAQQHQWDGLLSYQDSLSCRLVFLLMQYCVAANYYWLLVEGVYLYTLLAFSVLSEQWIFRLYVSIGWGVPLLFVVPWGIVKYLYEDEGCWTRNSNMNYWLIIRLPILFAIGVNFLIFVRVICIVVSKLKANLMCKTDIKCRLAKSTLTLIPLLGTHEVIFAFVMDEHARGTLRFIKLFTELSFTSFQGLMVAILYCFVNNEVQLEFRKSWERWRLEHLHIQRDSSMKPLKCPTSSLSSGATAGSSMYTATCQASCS
# T2 sequence (P47871 26-477): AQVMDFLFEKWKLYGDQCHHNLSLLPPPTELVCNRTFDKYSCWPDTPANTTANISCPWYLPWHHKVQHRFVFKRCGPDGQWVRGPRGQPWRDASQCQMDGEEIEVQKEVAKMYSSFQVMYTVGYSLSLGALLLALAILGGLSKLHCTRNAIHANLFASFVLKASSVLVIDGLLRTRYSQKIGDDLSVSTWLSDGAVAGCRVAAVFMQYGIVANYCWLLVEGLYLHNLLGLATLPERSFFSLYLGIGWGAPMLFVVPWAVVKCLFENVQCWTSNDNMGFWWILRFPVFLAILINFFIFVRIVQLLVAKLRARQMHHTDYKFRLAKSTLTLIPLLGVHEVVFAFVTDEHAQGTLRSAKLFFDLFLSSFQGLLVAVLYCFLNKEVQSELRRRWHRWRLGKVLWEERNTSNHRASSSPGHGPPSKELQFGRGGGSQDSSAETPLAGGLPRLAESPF
Structure (SMILES),Emax [1],EC50 [1],EC50 [2],EC50 [3],Emax [2]
CC[C@H](C)[C@H](NC(=O)[C@H](CC(C)C)NC(=O)[C@](C)(Cc1ccc(O)cc1)NC(=O)[C@H](CCCCNC(=O)COCCOCCNC(=O)COCCOCCNC(=O)CC[C@H](NC(=O)CCCCCCCCCCCCC(=O)O)C(=O)O)NC(=O)[C@@H](NC(=O)[C@H](Cc1ccccc1)NC(=O)[C@H](CCC(=O)O)NC(=O)C(C)(C)NC(=O)[C@H](CCC(N)=O)NC(=O)[C@H](C)NC(=O)[C@H](CCCCNC(=O)COCCOCCNC(=O)COCCOCCNC(=O)CC[C@H](NC(=O)CCCCCCCCCCCCC(=O)O)C(=O)O)NC(=O)[C@H](CCCN)NC(=O)[C@H](CC(=O)O)NC(=O)[C@H](CC(C)C)NC(=O)[C@](C)(CC(C)C)NC(=O)[C@@H](NC(=O)C(C)(C)NC(=O)[C@@H](NC(=O)[C@H](CC(=O)O)NC(=O)[C@H](CO)NC(=O)[C@@H](NC(=O)[C@](C)(Cc1ccccc1F)NC(=O)[C@@H](NC(=O)CNC(=O)[C@H](CCC(=O)O)NC(=O)C(C)(C)NC(=O)[C@@H](N)Cc1ccc(O)cc1)[C@@H](C)O)[C@@H](C)O)C(C)C)[C@@H](C)CC)[C@@H](C)CC)C(=O)N[C@@H](CCC(=O)O)C(=O)NCC(=O)NCC(=O)N1CCC[C@H]1C(=O)N[C@@H](CO)C(=O)N[C@@H](CO)C(=O)NCC(=O)N[C@@H](C)C(=O)N1CCC[C@H]1C(=O)N1CCC[C@H]1C(=O)N1CCC[C@H]1C(=O)N[C@@H](CO)C(N)=O [Example 115],91.6%,0.16 nM,0.103 nM,> 9950 nM,–
CC[C@H](C)[C@H](NC(=O)[C@H](CC(C)C)NC(=O)[C@](C)(Cc1ccc(O)cc1)NC(=O)[C@H](CCCCNC(=O)COCCOCCNC(=O)COCCOCCNC(=O)CC[C@H](NC(=O)CCCCCCCCCCCCC(=O)O)C(=O)O)NC(=O)[C@@H](NC(=O)[C@H](Cc1ccccc1)NC(=O)[C@H](CCC(=O)O)NC(=O)C(C)(C)NC(=O)[C@H](CCC(N)=O)NC(=O)[C@H](C)NC(=O)[C@H](CCCCNC(=O)COCCOCCNC(=O)COCCOCCNC(=O)CC[C@H](NC(=O)CCCCCCCCCCCCC(=O)O)C(=O)O)NC(=O)[C@H](CCCN)NC(=O)[C@H](CC(=O)O)NC(=O)[C@H](CC(C)C)NC(=O)[C@](C)(CC(C)C)NC(=O)[C@@H](NC(=O)[C@H](CO)NC(=O)C1(NC(=O)[C@H](CC(=O)O)NC(=O)[C@H](CO)NC(=O)[C@@H](NC(=O)[C@](C)(Cc2ccccc2F)NC(=O)[C@@H](NC(=O)CNC(=O)[C@H](CCC(=O)O)NC(=O)C(C)(C)NC(=O)[C@@H](N)Cc2ccc(O)cc2)[C@@H](C)O)[C@@H](C)O)CCCC1)[C@@H](C)CC)[C@@H](C)CC)C(=O)N[C@@H](CCC(=O)O)C(=O)NCC(=O)NCC(=O)N1CCC[C@H]1C(=O)N[C@@H](CO)C(=O)N[C@@H](CO)C(=O)NCC(=O)N[C@@H](C)C(=O)N1CCC[C@H]1C(=O)N1CCC[C@H]1C(=O)N1CCC[C@H]1C(=O)N[C@@H](CO)C(N)=O [Example 116],–,0.197 nM,–,> 9950 nM,115%
CC[C@H](C)[C@H](NC(=O)[C@H](CC(C)C)NC(=O)[C@](C)(Cc1ccc(O)cc1)NC(=O)[C@H](CCCCNC(=O)COCCOCCNC(=O)COCCOCCNC(=O)CC[C@H](NC(=O)CCCCCCCCCCCCC(=O)O)C(=O)O)NC(=O)[C@@H](NC(=O)[C@](C)(Cc1ccccc1)NC(=O)[C@H](CCC(=O)O)NC(=O)C(C)(C)NC(=O)[C@H](CCC(N)=O)NC(=O)[C@H](C)NC(=O)[C@H](CCCCNC(=O)COCCOCCNC(=O)COCCOCCNC(=O)CC[C@H](NC(=O)CCCCCCCCCCCCC(=O)O)C(=O)O)NC(=O)[C@H](CCCN)NC(=O)[C@H](CC(=O)O)NC(=O)[C@H](CC(C)C)NC(=O)[C@](C)(CC(C)C)NC(=O)[C@@H](NC(=O)C(C)(C)NC(=O)[C@H](Cc1ccncc1)NC(=O)[C@H](CC(=O)O)NC(=O)[C@H](CO)NC(=O)[C@@H](NC(=O)[C@](C)(Cc1ccccc1F)NC(=O)[C@@H](NC(=O)CNC(=O)[C@H](CCC(=O)O)NC(=O)C(C)(C)NC(=O)[C@@H](N)Cc1ccc(O)cc1)[C@@H](C)O)[C@@H](C)O)[C@@H](C)CC)[C@@H](C)CC)C(=O)N[C@@H](CCC(=O)O)C(=O)NCC(=O)NCC(=O)N1CCC[C@H]1C(=O)N[C@@H](CO)C(=O)N[C@@H](CO)C(=O)NCC(=O)N[C@@H](C)C(=O)N1CCC[C@H]1C(=O)N1CCC[C@H]1C(=O)N1CCC[C@H]1C(=O)N[C@@H](CO)C(N)=O [Example 117],98.2%,–,–,> 9950 nM,96.4%
CC[C@H](C)[C@H](NC(=O)[C@H](CC(C)C)NC(=O)[C@](C)(Cc1ccc(O)cc1)NC(=O)[C@H](CCCCNC(=O)COCCOCCNC(=O)COCCOCCNC(=O)CC[C@H](NC(=O)CCCCCCCCCCCCC(=O)O)C(=O)O)NC(=O)[C@@H](NC(=O)[C@](C)(Cc1ccccc1)NC(=O)[C@H](CCC(=O)O)NC(=O)C(C)(C)NC(=O)[C@H](CCC(N)=O)NC(=O)[C@H](C)NC(=O)[C@H](CCCCNC(=O)COCCOCCNC(=O)COCCOCCNC(=O)CC[C@H](NC(=O)CCCCCCCCCCCCC(=O)O)C(=O)O)NC(=O)[C@H](CCCN)NC(=O)[C@H](CC(=O)O)NC(=O)[C@H](CC(C)C)NC(=O)[C@](C)(CC(C)C)NC(=O)[C@@H](NC(=O)[C@H](CO)NC(=O)[C@@H](NC(=O)[C@H](CC(=O)O)NC(=O)[C@H](CO)NC(=O)[C@@H](NC(=O)[C@](C)(Cc1ccccc1F)NC(=O)[C@@H](NC(=O)CNC(=O)[C@H](CCC(=O)O)NC(=O)C(C)(C)NC(=O)[C@@H](N)Cc1ccc(O)cc1)[C@@H](C)O)[C@@H](C)O)C(C)C)[C@@H](C)CC)[C@@H](C)CC)C(=O)N[C@@H](CCC(=O)O)C(=O)NCC(=O)NCC(=O)N1CCC[C@H]1C(=O)N[C@@H](CO)C(=O)N[C@@H](CO)C(=O)NCC(=O)N[C@@H](C)C(=O)N1CCC[C@H]1C(=O)N1CCC[C@H]1C(=O)N1CCC[C@H]1C(=O)N[C@@H](CO)C(N)=O [Example 118],–,0.437 nM,0.0547 nM,> 9950 nM,94.7%
CC[C@H](C)[C@H](NC(=O)[C@H](CC(C)C)NC(=O)[C@](C)(Cc1ccc(O)cc1)NC(=O)[C@H](CCCCNC(=O)COCCOCCNC(=O)COCCOCCNC(=O)CC[C@H](NC(=O)CCCCCCCCCCCCC(=O)O)C(=O)O)NC(=O)[C@@H](NC(=O)[C@](C)(Cc1ccccc1)NC(=O)[C@H](CCC(=O)O)NC(=O)C(C)(C)NC(=O)[C@H](CCC(N)=O)NC(=O)[C@H](C)NC(=O)[C@H](CCCCNC(=O)COCCOCCNC(=O)COCCOCCNC(=O)CC[C@H](NC(=O)CCCCCCCCCCCCC(=O)O)C(=O)O)NC(=O)[C@H](CCCN)NC(=O)[C@H](CC(=O)O)NC(=O)[C@H](CC(C)C)NC(=O)[C@](C)(CC(C)C)NC(=O)[C@@H](NC(=O)C(C)(C)NC(=O)[C@@H](NC(=O)[C@H](CC(=O)O)NC(=O)[C@H](CO)NC(=O)[C@@H](NC(=O)[C@](C)(Cc1ccccc1F)NC(=O)[C@@H](NC(=O)CNC(=O)[C@H](CCC(=O)O)NC(=O)C(C)(C)NC(=O)[C@@H](N)Cc1ccc(O)cc1)[C@@H](C)O)[C@@H](C)O)C(C)C)[C@@H](C)CC)[C@@H](C)CC)C(=O)N[C@@H](CCC(=O)O)C(=O)NCC(=O)NCC(=O)N1CCC[C@H]1C(=O)N[C@@H](CO)C(=O)N[C@@H](CO)C(=O)NCC(=O)N[C@@H](C)C(=O)N1CCC[C@H]1C(=O)N1CCC[C@H]1C(=O)N1CCC[C@H]1C(=O)N[C@@H](CO)C(N)=O [Example 119],99.4%,0.351 nM,0.0863 nM,> 9950 nM,–
CC[C@H](C)[C@H](NC(=O)[C@H](CC(C)C)NC(=O)[C@](C)(Cc1ccccc1)NC(=O)[C@H](CCCCNC(=O)COCCOCCNC(=O)COCCOCCNC(=O)CC[C@H](NC(=O)CCCCCCCCCCCCC(=O)O)C(=O)O)NC(=O)[C@@H](NC(=O)[C@](C)(Cc1ccccc1)NC(=O)[C@H](CCC(=O)O)NC(=O)C(C)(C)NC(=O)[C@H](CCC(N)=O)NC(=O)[C@H](C)NC(=O)[C@H](CCCCNC(=O)COCCOCCNC(=O)COCCOCCNC(=O)CC[C@H](NC(=O)CCCCCCCCCCCCC(=O)O)C(=O)O)NC(=O)[C@H](CCCN)NC(=O)[C@H](CC(=O)O)NC(=O)[C@H](CC(C)C)NC(=O)[C@](C)(CC(C)C)NC(=O)[C@@H](NC(=O)C(C)(C)NC(=O)[C@H](Cc1ccncc1)NC(=O)[C@H](CC(=O)O)NC(=O)[C@H](CO)NC(=O)[C@@H](NC(=O)[C@](C)(Cc1ccccc1F)NC(=O)[C@@H](NC(=O)CNC(=O)[C@H](CCC(=O)O)NC(=O)C(C)(C)NC(=O)[C@@H](N)Cc1ccc(O)cc1)[C@@H](C)O)[C@@H](C)O)[C@@H](C)CC)[C@@H](C)CC)C(=O)N[C@@H](CCC(=O)O)C(=O)NCC(=O)NCC(=O)N1CCC[C@H]1C(=O)N[C@@H](CO)C(=O)N[C@@H](CO)C(=O)NCC(=O)N[C@@H](C)C(=O)N1CCC[C@H]1C(=O)N1CCC[C@H]1C(=O)N1CCC[C@H]1C(=O)N[C@@H](CO)C(N)=O [Example 121],–,8.95 nM,0.0271 nM,> 9950 nM,92.8%
